{
  "source": "patent US11821905B2",
  "about": "“Biomarkers of vascular disease” (Arterez, Inc., priority 2015, dated 2023)",
  "type_in_all_cases": "in vivo, mouse",
  "key": {"[1]": {"system": "Hyaluronan Synthase 1 (HAS-1)", "experiment": "Hyaluronan Synthase 1 (HAS-1) ELISA on plasma, murine model of atherosclerosis, Example 2", "conditions": "FIG. 10; high fat diet, PCB on Day 1 and 3, sacrificed at Day 4", "from_the_text": "(§1) A novel model of atherosclerosis in mice was developed, using a high fat diet and administration of a polychlorinated biphenyl (3,3′,4,4′-Tetrachlorobiphenyl; PCB-77) that promotes both obesity and atherosclerosis and the additional oral administration of a bacteria responsible for tooth decay, Porphyromonas gingivalis 381 (ATCC 33277). The objective of this study was to examine the association of biomarkers with the murine model of atherosclerosis in mice treated with a strategy to protect and repair endothelial glycocalyx. Eighty-four (84) ten week old male C57/BI6 mice were obtained from Jackson Laboratories. Thirty-two mice were raised from 6 weeks on a regular diet and served as controls, and the remaining mice were raised on a 60% fat diet (D12451, DIO series diet, Opensource Diets). 3,3′,4,4′-Tetrachlorobiphenyl (PCB-77) was obtained from Neosyn Laboratories. The dry chemical was suspended in 15.22 ml of corn oil to deliver 200 μmol/kg in 0.2 ml by gavage per mouse.\n(§2) Four test kits were used to analyze the collected plasma samples: Heparan Sulfate ELISA and Hyaluronan Synthase 1 (HAS-1) ELISA (Antibodies-Online), Total Plasminogen Activation Inhibitor-1 (PAI-1) ELISA (Molecular-Innovive) and Syndecan-1 (SDC1) ELISA (USCN, Houston, Tex.). […]"}, "Heparan Sulfate (HS)": {"system": "Heparan Sulfate (HS)", "experiment": "Heparan Sulfate ELISA on plasma, murine model of atherosclerosis, Example 2", "conditions": "FIG. 11; mice treated PCB-77 and Porphyromonas gingivalis", "from_the_text": "as §1, §2"}, "C57/BI6 mice [2]": {"system": "C57/BI6 mice", "experiment": "Pathology of arterial wall, murine model of atherosclerosis, Example 2", "conditions": "FIGS. 14A, 14B; positive control group (High fat diet, PCB)", "from_the_text": "as §1\nThe mice were sacrificed on days 4, 11, or 18 according to the experimental plan (three each from groups). The animals were anesthetized by intraperitoneal injection of 90 mg/kg Ketamine and 8 mg/kg Xylazine, and Isoflurane gas anesthesia. Blood was collected by retro-orbital bleeding or from the heart and mixed with 50 mg/ml heparin to prevent clotting. […]"}, "Syndecan-1 (SDC1)": {"system": "Syndecan-1 (SDC1)", "experiment": "Syndecan-1 (SDC1) ELISA on plasma, murine model of atherosclerosis, Example 2", "conditions": "FIG. 13; mice treated PCB-77 and Porphyromonas gingivalis; high degree of variability", "from_the_text": "as §1, §2"}, "C57/BI6 mice [3]": {"system": "C57/BI6 mice", "experiment": "Histology disease score (Oil Red O, plaque, fibrous tissue, inflammation), Example 1", "conditions": "FIG. 9, gavage 150 μmol/kg, sacrifice days 10, 15, 20", "method": "For the pilot study, 48 ten week old male C57/BI6 mice were obtained from Jackson Laboratories. Three mice were raised from 6 weeks on a regular diet and served as controls, and the remaining 45 were raised on a 60% fat diet (D12451, DIO series diet, Opensource Diets). For the bacterial dosage test, 16 ten week old male C57/BI6 mice were divided into 4 treatment groups and maintained on a normal diet.\n3,3′,4,4′-Tetrachlorobiphenyl (PCB-77) was obtained from Neosyn Laboratories. 100 mg of the dry chemical was suspended in 15.22 ml of corn oil to deliver 150 μmol/kg in 0.2 ml per mouse. Porphyromonas gingivalis 381 (ATCC 33277) was obtained from ATCC. The bacteria were stored frozen prior to use. […] A microplate reader was used to measure the optical density at 600 nm to determine the concentration of bacteria. […]\nThe hearts were prepared as frozen sections. […] Multiple 10 μm sections at the level of the aortic sinus were analyzed for the presence of oil Red O lipid staining, plaque size, amount of fibrous tissue, and inflammation. The percentage of the lumen occupied by the first three features was calculated using Image Pro Plus. […] The level of inflammation in each section was scored on the following scale: 0=no inflammatory cells observed, 1=few macrophages with no giant cells, 2=foam cells present, 3=foam cells with cholesterol, 4=foam cells, giant cells, and cholesterol present. […]"}},
  "data": [
    {"smiles": "Clc1ccc(-c2ccc(Cl)c(Cl)c2)cc1Cl", "note": "[PCB-77, 3,3′,4,4′-Tetrachlorobiphenyl]", "values": [
      {"measurement": "HAS-1 levels", "setting": "[1]", "value": "highest HAS-1 levels"},
      {"measurement": "Heparan Sulfate (HS) level", "setting": "Heparan Sulfate (HS)", "value": "elevation in HS"},
      {"measurement": "pathology of arterial wall", "setting": "C57/BI6 mice [2]", "value": "presence of a pathology consistent with plaque"},
      {"measurement": "SDC-1 level", "setting": "Syndecan-1 (SDC1)", "value": "elevation in SDC-1"},
      {"measurement": "average disease scores for each group and time point (inflammation and plaque)", "setting": "C57/BI6 mice [3]", "value": "most significant risk factor to producing inflammation and plaque"}
    ]}
  ]
}
